From patent US20070160527A1, “Use of n-acetyl-d-aminoglycosamine in treatment of local lesions or systematic symptoms related to autoimmune reactions” (priority 2003, published 2007)

Columns and labels:
B16 tumor cells [1] = assay: Animal test of regulating micro-heterology variation (B16 tumor cells inoculated on hind legs); type: in vivo, rats; conditions: 7 days, 3 times per day; for control of micro-heterology variation compared with the control group: rats inoculated with B16 tumor cells, intra-peritoneal, 1 ml
From the text: In control group without the administration of the compound of formula (1), many proliferative corpuscles appeared in at least 40 among 50 rats within 1-3 days after the tumor cells were inoculated; many immature cells appeared within 3-5 days; and visible solid tumors finally appeared within about 10 days.

B16 tumor cells [2] = assay: Cytological test of regulating micro-heterology variation; type: cell-based; conditions: final concentration 1 g/100 ml, incomplete 1640 medium, continued culture more than 48 hours; control cells could not proliferate
Procedure: Conventional incomplete 1640 culture media were used for cell culture, and B16 tumor cells (commericially obtained from the tumor cell library of Shanghai Institute of Cytobiology) were inoculated on said media. After continue culture for more than 48 hours, the micro-heterology variation of cells and the control effects of N-acetyl-D-glucosamine thereon were observed under a condition where metabolic wastes affected the growth environment. […] The control cells cultured without N-acetyl-D-glucosamine could not proliferate on the same culture media under same conditions.

[3] = in vivo
From the text: The toxicological test of the compound of formula (I) includes: • 1. Acute toxicity test: including tests of oral administration, intravenous injection administration, and maximum limit amount for administration; • 2. Ames test; • 3. Micronucleus test of mouse bone marrow cell; • 4. Abnormality test of mouse sperm; • 5. Aberration test of mouse testis chromosome; • 6. Chronic lethal test; • 7. Sub-chronic toxicity (feed for 90 days) test; • 8. Traditional deformity-inducing test.

Proteus Mirabilis = assay: Promoting wave test (bio-wave model); type: cell-based; conditions: final concentration 0.5% in LB plate, 37° C., 9 hours, compared with control sample
From the text: • 1. […] (+). […] Experimental results and evaluation:

[4] = Treatment of a patient with systemic lupus erythematosus; type: in vivo, human; conditions: one patient, capsules 100 mg, 3 times per day, 7 days
Procedure: Patient who had definite systemic lupus erythematosus, was administered with capsules of the compound of formula (1) for consecutive 7 days, 3 times per day, and 100 mg every time, during the period of hospitalization.

[5] = Treatment of a patient with hyperthyroidism; type: in vivo, human; conditions: one patient, capsules 100 mg, 3 times per day, 7 days
Procedure: Patient was administered with capsules of the compound of formula (1) for consecutive 7 days, 3 times per day, and 100 mg every time, during the period of treating diarrhea.

| Structure (SMILES) | control of micro-heterology variation compared with the control group (B16 tumor cells [1]) | cell proliferation under a condition where metabolic wastes affected the growth environment (B16 tumor cells [2]) | dosage at which the acute toxicosis reaction had not appeared [3] | bio-wave pattern of bacterial growth (promoting wave function) (Proteus Mirabilis) | patient's symptom [4] | number of rats in which solid tumor did not appear (B16 tumor cells [1]; 50 rats, 5% aqueous solution intra-peritoneally, 1 ml every time) | therapeutical effect on hyperthyroidism (confirmed by T3 and T4 in serum) [5] |
| --- | --- | --- | --- | --- | --- | --- | --- |
| CC(=O)N[C@H]1C(O)O[C@H](CO)[C@@H](O)[C@@H]1O.Cl (stereo partly drawn) [N-acetyl-D-glucosamine hydrochloride] | exhibited function of controlling micro-heterology variation | cells could proliferate continuously |  |  |  |  |  |
| CC(=O)N[C@@H]1[C@@H](O)[C@H](O)[C@@H](CO)O[C@H]1O [compound of formula (I), N-acetyl-D-glucosamine] | could control the micro-heterology variation | cell number stably increased with the culture time | more than 2 g/kg | finer wave mode | remitted in some extent | 45 | better effect of treating hyperthyroidism |
